Measured values as given in PubChem BioAssay AID1259407 (Chemical Carcinogenesis Research Information System (CCRIS), 2018).
Activity calls are given as the source filed them. The rule behind the calls is not given here.

Tested on: CCRIS mutagenicity, Ames/micronucleus/aberration tests
Assay: CCRIS mutagenicity studies

Structure (SMILES) | mutagenic call (Test System: AMES SALMONELLA TYPHIMURIUM, Strain/Indicator: TA97, Metabolic Activation: NONE, Method: STANDARD PLATE) | mutagenic call (Test System: AMES SALMONELLA TYPHIMURIUM, Strain/Indicator: TA97, Metabolic Activation: RAT, LIVER, S-9, AROCLOR 1254, Method: STANDARD PLATE) | mutagenic call (Test System: AMES SALMONELLA TYPHIMURIUM, Strain/Indicator: TA98, Metabolic Activation: NONE, Method: STANDARD PLATE) | mutagenic call (Test System: AMES SALMONELLA TYPHIMURIUM, Strain/Indicator: TA98, Metabolic Activation: RAT, LIVER, S-9, AROCLOR 1254, Method: STANDARD PLATE) | mutagenic call (Test System: AMES SALMONELLA TYPHIMURIUM, Strain/Indicator: TA100, Metabolic Activation: NONE, Method: STANDARD PLATE) | mutagenic call (Test System: AMES SALMONELLA TYPHIMURIUM, Strain/Indicator: TA100, Metabolic Activation: RAT, LIVER, S-9, AROCLOR 1254, Method: STANDARD PLATE) | mutagenic call (Test System: AMES SALMONELLA TYPHIMURIUM, Strain/Indicator: TA1535, Metabolic Activation: NONE, Method: STANDARD PLATE) | mutagenic call (Test System: AMES SALMONELLA TYPHIMURIUM, Strain/Indicator: TA1535, Metabolic Activation: RAT, LIVER, S-9, AROCLOR 1254, Method: STANDARD PLATE) | mutagenic call (Test System: AMES SALMONELLA TYPHIMURIUM, Strain/Indicator: TA1538, Metabolic Activation: NONE, Method: STANDARD PLATE) | mutagenic call (Test System: AMES SALMONELLA TYPHIMURIUM, Strain/Indicator: TA1538, Metabolic Activation: RAT, LIVER, S-9, AROCLOR 1254, Method: STANDARD PLATE) | mutagenic call (Test System: CHINESE HAMSTER OVARY, Strain/Indicator: AS52/6-THIOGUANINE, Metabolic Activation: NONE) | mutagenic call (Test System: CHINESE HAMSTER OVARY, Strain/Indicator: AS52/6-THIOGUANINE, Metabolic Activation: RAT LIVER S-9, 2-ACETYLAMINOFLUORENE)
CC(C)C[C@H](NC(=O)COc1cc(Cl)c(Cl)cc1Cl)C(=O)O | inactive; negative | inactive; negative | inactive; negative | inactive; negative | inactive; negative | inactive; negative | inactive; negative | inactive; negative | inactive; negative | inactive; negative | – | –
CC(=O)Nc1ccc(/C=C/c2ccccc2)cc1 | – | – | – | – | – | – | – | – | – | – | inactive; negative | active; positive
